Values of other authors, collected in PMC12385147, “Discovery of Novel 2-Substituted Aniline Pyrimidine Based Derivatives as Potent Mer/c-Met Dual Inhibitors with Improvement Bioavailability” (Biomolecules, 2025).

Columns and labels:
xenograft models = test system: xenograft models; set-up: method as in PMID 29554921; details: cited from earlier work
[1] = cited from earlier work

Structure (SMILES) | tumor volume reduction vs. control (xenograft models) | t1/2 in human hepatocytes [1] [min]
CCCCNc1ncc(-c2ccc(CN3CCOCC3)cn2)c(N[C@H]2CC[C@H](O)CC2)n1 [UNC2250] | ~ 60% | 
CCCCNc1ncc2c(-c3ccc(CN4CCN(C)CC4)cc3)cn([C@H]3CC[C@H](O)CC3)c2n1 [UNC2025] |  | 68
